Values of other authors in patent publication US10975056B2 (GlaxoSmithKline Intellectual Property Development Limited, priority 2016, dated 2021).

Legend:
[1] = test system: erythroid progenitor cells; details: cited from earlier work
[2] = test system: patients with sickle cell anemia, sickle cell disease and beta-thalassemia; details: limited set of clinical studies; cited from earlier work

SMILES	induction of fetal hemoglobin [1]	fetal hemoglobin in patients [2]
Nc1ncn([C@H]2C[C@H](O)[C@@H](CO)O2)c(=O)n1 [5-aza-2′-deoxycytidine (decitabine), 5-aza-2′-deoxycytidine]	known inducers of fetal hemoglobin	caused increases in fetal hemoglobin
Nc1ncn([C@@H]2O[C@H](CO)[C@@H](O)[C@H]2O)c(=O)n1 [5-azacytidine]	known inducers of fetal hemoglobin	caused increases in fetal hemoglobin
